Assay results as given in ChEMBL document CHEMBL1201862, “PubChem BioAssay data set” (2004).
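Protocol summary: plate cells (96-well), add compound at 5 concentrations, incubate 48 h, interpolate endpoints linearly. GI50 = concentration required for 50% inhibition of growth.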 Activity calls are given as the source filed them. Cut-off read from the data, not from the text of the source: active = GI50 up to about 1.1 µM and inactive = higher.

Legend:
Assay in all cases: NCI tumour cell line growth inhibition, 48 h
786-0 = tested on: 786-0
LOX IMVI = tested on: LOX IMVI
SF-295 = tested on: SF-295
NCI-H23 = tested on: NCI-H23
HOP-62 = tested on: HOP-62
ACHN = tested on: ACHN
M14 = tested on: M14
EKVX = tested on: EKVX
K562 = tested on: K562
SNB-19 = tested on: SNB-19
M19-MEL = tested on: M19-MEL
HT-29 = tested on: HT-29
OVCAR-5 = tested on: OVCAR-5
HOP-18 = tested on: HOP-18
KM12 = tested on: KM12
SK-MEL-28 = tested on: SK-MEL-28
RXF 631 = tested on: RXF 631
IGROV-1 = tested on: IGROV-1
Malme-3M = tested on: Malme-3M
UACC-257 = tested on: UACC-257
OVCAR-4 = tested on: OVCAR-4
MOLT-4 = tested on: MOLT-4
NCI-H460 = tested on: NCI-H460
DMS-273 = tested on: DMS-273
DMS-114 = tested on: DMS-114
OVCAR-3 = tested on: OVCAR-3
HCT-15 = tested on: HCT-15
KM-20L2 = tested on: KM-20L2
SN12C = tested on: SN12C
HOP-92 = tested on: HOP-92
SK-OV-3 = tested on: SK-OV-3
CCRF-CEM = tested on: CCRF-CEM
HL-60 = tested on: HL-60
NCI-H522 = tested on: NCI-H522
UACC-62 = tested on: UACC-62
UO-31 = tested on: UO-31
A498 = tested on: A498
HCT-116 = tested on: HCT-116
OVCAR-8 = tested on: OVCAR-8
U-251 = tested on: U-251
TK-10 = tested on: TK-10
A549 = tested on: A549
RPMI-8226 = tested on: RPMI-8226
SF-268 = tested on: SF-268
LXFL 529 = tested on: LXFL 529
SNB-75 = tested on: SNB-75
RXF 393 = tested on: RXF 393
SK-MEL-2 = tested on: SK-MEL-2
CAKI-1 = tested on: CAKI-1
NCI-H226 = tested on: NCI-H226
COLO 205 = tested on: COLO 205
DLD-1 = tested on: DLD-1
SW-620 = tested on: SW-620
SF-539 = tested on: SF-539
HCC 2998 = tested on: HCC 2998

## CSc1ccc2c(cc1=O)[C@@H](NC(=O)c1cccc([N+](=O)[O-])c1)CCc1cc(O)c(O)c(O)c1-2
786-0
  GI50: 61.2 µM (inactive)
LOX IMVI
  GI50: 17.5 µM (inactive)
SF-295
  GI50: 42.4 µM (inactive)
NCI-H23
  GI50: 33 µM (inactive)
HOP-62
  GI50: > 100 µM (inactive)
ACHN
  GI50: > 100 µM (inactive)
M14
  GI50: 25.3 µM (inactive)
EKVX
  GI50: 50.9 µM (inactive)
K562
  GI50: 26.6 µM (inactive)
SNB-19
  GI50: > 100 µM (inactive)
M19-MEL
  GI50: 22.1 µM (inactive)
HT-29
  GI50: 37.8 µM (inactive)
OVCAR-5
  GI50: > 100 µM (inactive)
HOP-18
  GI50: > 100 µM (inactive)
KM12
  GI50: 31.2 µM (inactive)
SK-MEL-28
  GI50: > 100 µM (inactive)
RXF 631
  GI50: 36.1 µM (inactive)
IGROV-1
  GI50: 46.2 µM (inactive)
Malme-3M
  GI50: 81.3 µM (inactive)
UACC-257
  GI50: 87.9 µM (inactive)
OVCAR-4
  GI50: 50 µM (inactive)
MOLT-4
  GI50: 21.6 µM (inactive)
NCI-H460
  GI50: 54.2 µM (inactive)
DMS-273
  GI50: 32 µM (inactive)
DMS-114
  GI50: 24.4 µM (inactive)
OVCAR-3
  GI50: 35.5 µM (inactive)
HCT-15
  GI50: 36.3 µM
KM-20L2
  GI50: 23 µM (inactive)
SN12C
  GI50: 27.3 µM (inactive)
HOP-92
  GI50: > 100 µM (inactive)
SK-OV-3
  GI50: 42.4 µM (inactive)
CCRF-CEM
  GI50: 34 µM (inactive)
HL-60
  GI50: 26.1 µM (inactive)
NCI-H522
  GI50: 12.6 µM (inactive)
UACC-62
  GI50: 18.3 µM (inactive)
UO-31
  GI50: > 100 µM (inactive)
A498
  GI50: 27.7 µM (inactive)
HCT-116
  GI50: 20 µM (inactive)
OVCAR-8
  GI50: 66.5 µM (inactive)
U-251
  GI50: 22.8 µM (inactive)
TK-10
  GI50: > 100 µM (inactive)
A549
  GI50: 53.6 µM (inactive)
RPMI-8226
  GI50: 28.1 µM (inactive)
SF-268
  GI50: 57.9 µM (inactive)
LXFL 529
  GI50: 35.8 µM (inactive)
SNB-75
  GI50: 25.1 µM (inactive)
RXF 393
  GI50: 51.2 µM (inactive)
SK-MEL-2
  GI50: 34.8 µM (inactive)
CAKI-1
  GI50: 67.3 µM (inactive)
NCI-H226
  GI50: 24.2 µM (inactive)
COLO 205
  GI50: 38.9 µM (inactive)
DLD-1
  GI50: 43.8 µM (inactive)
SW-620
  GI50: 23.5 µM (inactive)
SF-539
  GI50: 26.2 µM (inactive)
HCC 2998
  GI50: 92.7 µM (inactive)
